Measurements from patent publication US20240308998A1, “PYRROLOPYRIDONE DERIVATIVES USEFUL IN THE TREATMENT OF CANCER” (Tay Therapeutics Limited, priority 2021, published 2024).

Tests used:
[1] = target: T1, BRD4 BD1 (Homo sapiens, UniProt O60885); experiment: NanoBRET bromodomain assay, BRD4 BD1; type: cell-based; settings: HEK293 cells transfected with NanoLuc-BRD4-BD1
T1 construct: HEK293 cells were transfected using NanoLuc-BRD4-BD1 or NanoLuc-BRD4-BD2 fusion vectors; host or cells: HEK293
Experimental: (§1) HEK293 cells were transfected using NanoLuc-BRD4-BD1 or NanoLuc-BRD4-BD2 fusion vectors and incubated at 37° C. in an atmosphere of 5% CO2 for 20-24 hours. The transfected cells were then dispensed into 96-well plates using 90 μl cell suspension per well containing 2×10^5 cells/ml in Opti-MEM and 1x final concentration of tracer. 90 μl per well of cell suspension without tracer was also dispensed into at least 3 wells as “No tracer control samples” for background correction. Serially diluted test compounds were prepared at 1000× concentration in DMSO and further diluted to 10× concentration in Opti-MEM. 10 μl per well of the serially diluted 10× test compound was added to the 96-well plates containing cells with 1x tracer. Plates were then incubated at 37° C.+5% C02 incubator for 2 hours. Immediately prior to BRET measurements, a 3x solution consisting of 1:166 dilution of Nano-Glo® Substrate plus a 1:500 dilution of Extracellular NanoLuc Inhibitor in Opti-MEM was prepared and 50 μl per well was added to the cells. Donor emission (450 nm) and acceptor emission (610 nm) were measured using PHERAstar (BMG LabTech). For data analysis, the raw BRET ratio was generated and converted to milliBRET units with background correction using the formula: [(Acceptorsample/Donorsample)−(Acceptorno tracer control/Donorno tracer control)]×1000. The mBU data was plotted as a function of compound concentration and IC50s for BRET assay were determined by nonlinear regression analysis of concentration response curves using the GraphPad Prism software.

[2] = Intrinsic clearance in rat liver microsomes; type: in vitro ADME; settings: pH 7.4, NADPH, read-out: Rat Microsomal Stability T½
Experimental: A 50 mM stock solution (in DMSO) was prepared for the compound. From the stock solution, a working solution of 0.5 mM was prepared by diluting the compound in DMSO. This concentration of working solution was prepared considering a final concentration of 1 uM with 0.1% DMSO. The compound (1 uL of working solution) was spiked in PBS with pH 7.4 (22 uL) at a concentration of 1 uM. Subsequently, 110 uL of 10 mM NADPH was added (as a co-factor). The sample was incubated at 37° C. for 15 min. Following this, pre-warmed rat liver microsomes (27.5 uL; final protein conc. 0.5 mg/mL) were added. The samples were then incubated at 37° C. Aliquots of samples were withdrawn at 0, 5, 15, 30, 45 and 60 min. The reaction was stopped by using chilled acetonitrile containing internal standard. The samples were centrifuged and the supernatants analysed by LC-MS/MS. The percent compound remaining at each time point was calculated with respect to that of the 0 min sample. The data were then analysed to calculate half-life. Note that control samples were run without NADPH and blank samples were prepared using DMSO without the test Compound.

[3] = target: T2, BRD4 BD2 (Homo sapiens, UniProt O60885); experiment: NanoBRET bromodomain assay, BRD4 BD2; type: cell-based; settings: for Fold selectivity BRD4 BD1/BD2: IC50 BD1/IC50 BD2; for IC50: NanoBRET, HEK293 cells transfected with NanoLuc-BRD4-BD2
T2 construct: HEK293 cells were transfected using NanoLuc-BRD4-BD1 or NanoLuc-BRD4-BD2 fusion vectors; host or cells: HEK293
Experimental: as §1
Fold Selectivity Calculated (IC50 BD1/IC50 BD2).

| SMILES | IC50 [1] [nM] | half-life at 1 uM [2] [h] | Fold selectivity BRD4 BD1/BD2 [3] | IC50 [3] [nM] |
| --- | --- | --- | --- | --- |
| Cc1ccc(Cl)cc1-c1cc2c(-c3cc(=O)n(C)cc3Oc3c(C)cccc3C)cn(C)c(=O)c2[nH]1 [Example 20, 2-(5-chloro-2-methylphenyl)-4-(5-(2,6-dimethylphenoxy)-1-methyl-2-oxo-1,2-dihydropyridin-4-yl)-6-methyl-1,6-dihydro-7H-pyrrolo[2,3-c] pyridin-7-one] | > 1000 | > 1 | x (Fold >2 and ≤50) | 200 to 1000 |
| Cc1cccc(C)c1Oc1cn(C)c(=O)cc1-c1cn(C)c(=O)c2[nH]c(-c3ccn[nH]3)cc12 [Example 32, 4-(5-(2,6-dimethylphenoxy)-1-methyl-2-oxo-1,2-dihydropyridin-4-yl)-6-methyl-2-(1H-pyrazol-5-yl)-1,6-dihydro-7H-pyrrolo [2,3-c] pyridin-7-one] | > 1000 | > 1 | xx (Fold >50 and ≤200) | 50 to 200 |
| Cc1cccc(C)c1Oc1cn(C)c(=O)cc1-c1cn(C)c(=O)c2[nH]c(-c3ccc(S(C)(=O)=O)cc3)cc12 [Example 26, 4-(5-(2,6-dimethylphenoxy)-1-methyl-2-oxo-1,2-dihydropyridin-4-yl)-6-methyl-2-(4-(methylsulfonyl)phenyl)-1,6-dihydro-7H-pyrrolo[2,3-c] pyridin-7-one] | > 1000 | > 1 | xx (Fold >50 and ≤200) | ≤ 50 |
| Cc1cccc(C)c1Oc1cn(C)c(=O)cc1-c1cn(C)c(=O)c2[nH]c(-c3ccc(C#N)cc3)cc12 [Example 24, 4-(4-(5-(2,6-dimethylphenoxy)-1-methyl-2-oxo-1,2-dihydropyridin-4-yl)-6-methyl-7-oxo-6,7-dihydro-1H-pyrrolo[2,3-c]pyridin-2-yl) benzonitrile] | > 1000 | > 1 | x (Fold >2 and ≤50) | 200 to 1000 |
| Cc1cccc(C)c1Oc1cn(C)c(=O)cc1-c1cn(C)c(=O)c2[nH]c(-c3ccn(C)c3)cc12 [Example 13, 4-(5-(2,6-dimethylphenoxy)-1-methyl-2-oxo-1,2-dihydropyridin-4-yl)-6-methyl-2-(1-methyl-1H-pyrrol-3-yl)-1,6-dihydro-7H-pyrrolo[2,3-c] pyridin-7-one] | > 1000 | > 1 | xxx (Fold >200) | ≤ 50 |
| Cc1ccc(C(F)(F)F)cc1-c1cc2c(-c3cc(=O)n(C)cc3Oc3c(C)cccc3C)cn(C)c(=O)c2[nH]1 [Example 21, 4-(5-(2,6-dimethylphenoxy)-1-methyl-2-oxo-1,2-dihydropyridin-4-yl)-6-methyl-2-(2-methyl-5-(trifluoromethyl)phenyl)-1,6-dihydro-7H-pyrrolo[2,3-c] pyridin-7-one] | > 1000 | > 1 | — (Fold ≥0 and ≤2) | > 1000 |
| Cc1cccc(C)c1Oc1cn(C)c(=O)cc1-c1cn(C)c(=O)c2[nH]c(-c3ccc(C(N)=O)cc3)cc12 [Example 29, 4-(4-(5-(2,6-dimethylphenoxy)-1-methyl-2-oxo-1,2-dihydropyridin-4-yl)-6-methyl-7-oxo-6,7-dihydro-1H-pyrrolo[2,3-c]pyridin-2-yl) benzamide] | > 1000 | > 1 | xxx (Fold >200) | ≤ 50 |
| Cc1ccccc1-c1cc2c(-c3cc(=O)n(C)cc3Oc3c(C)cccc3C)cn(C)c(=O)c2[nH]1 [Example 15, 4-(5-(2,6-dimethylphenoxy)-1-methyl-2-oxo-1,2-dihydropyridin-4-yl)-6-methyl-2-(o-tolyl)-1,6-dihydro-7H-pyrrolo[2,3-c] pyridin-7-one] | > 1000 | 0.383 | x (Fold >2 and ≤50) | 200 to 1000 |
| Cc1cccc(C)c1Oc1cn(C2CNC2)c(=O)cc1-c1cn(C)c(=O)c2[nH]c(-c3cnn(C(C)C)c3C)cc12 [Example 43, 4-(1-(azetidin-3-yl)-5-(2,6-dimethylphenoxy)-2-oxo-1,2-dihydropyridin-4-yl)-2-(1-isopropyl-5-methyl-1H-pyrazol-4-yl)-6-methyl-1,6-dihydro-7H-pyrrolo[2,3-c] pyridin-7-one] | > 1000 | – | x (Fold >2 and ≤50) | > 1000 |
| Cc1cccc(C)c1Oc1cn(C)c(=O)cc1-c1cn(C)c(=O)c2[nH]c(-c3cc(C(F)(F)F)ccc3F)cc12 [Example 34, 4-(5-(2,6-dimethylphenoxy)-1-methyl-2-oxo-1,2-dihydropyridin-4-yl)-2-(2-fluoro-5-(trifluoromethyl)phenyl)-6-methyl-1,6-dihydro-7H-pyrrolo[2,3-c] pyridin-7-one] | > 1000 | – | xxx (Fold >200) | ≤ 50 |
| Cc1cccc(C)c1Oc1cn(C)c(=O)cc1-c1cn(C)c(=O)c2[nH]c(-c3cnn(CS(C)(=O)=O)c3)cc12 [Example 65, 4-(5-(2,6-dimethylphenoxy)-1-methyl-2-oxo-1,2-dihydropyridin-4-yl)-6-methyl-2-(1-((methylsulfonyl)methyl)-1H-pyrazol-4-yl)-1,6-dihydro-7H-pyrrolo[2,3-c]pyridin-7-one] | > 1000 | – | x (Fold >2 and ≤50) | ≤ 50 |

Continued, values first:

| IC50 [1] [nM] | half-life at 1 uM [2] [h] | Fold selectivity BRD4 BD1/BD2 [3] | IC50 [3] [nM] | SMILES |
| --- | --- | --- | --- | --- |
| > 1000 | > 1 | xx (Fold >50 and ≤200) | ≤ 50 | Cc1cccc(C)c1Oc1cn(C)c(=O)cc1-c1cn(C)c(=O)c2[nH]c(-c3cnn(C)c3C)cc12 [Example 36, 2-(1,5-dimethyl-1H-pyrazol-4-yl)-4-(5-(2,6-dimethylphenoxy)-1-methyl-2-oxo-1,2-dihydropyridin-4-yl)-6-methyl-1,6-dihydro-7H-pyrrolo[2,3-c] pyridin-7-one] |
| 500 to 1000 | > 1 | xxx (Fold >200) | ≤ 50 | Cc1cccc(C)c1Oc1cn(C)c(=O)cc1-c1cn(C)c(=O)c2[nH]c(-c3cn(C(C)C)nc3C)cc12 [Example 6, 4-(5-(2,6-dimethylphenoxy)-1-methyl-2-oxo-1,2-dihydropyridin-4-yl)-2-(1-isopropyl-3-methyl-1H-pyrazol-4-yl)-6-methyl-1,6-dihydro-7H-pyrrolo[2,3-c]pyridin-7-one] |
| > 1000 | > 1 | xxx (Fold >200) | ≤ 50 | Cc1ccc(F)c(-c2cc3c(-c4cc(=O)n(C)cc4Oc4c(C)cccc4C)cn(C)c(=O)c3[nH]2)c1 [Example 16, 4-(5-(2,6-dimethylphenoxy)-1-methyl-2-oxo-1,2-dihydropyridin-4-yl)-2-(2-fluoro-5-methylphenyl)-6-methyl-1,6-dihydro-7H-pyrrolo[2,3-c] pyridin-7-one] |
| 500 to 1000 | > 1 | xx (Fold >50 and ≤200) | ≤ 50 | Cc1cccc(C)c1Oc1cn(C)c(=O)cc1-c1cn(C)c(=O)c2[nH]c(-c3cn(C)nc3C)cc12 [Example 12, 2-(1,3-dimethyl-1H-pyrazol-4-yl)-4-(5-(2,6-dimethylphenoxy)-1-methyl-2-oxo-1,2-dihydropyridin-4-yl)-6-methyl-1,6-dihydro-7H-pyrrolo[2,3-c] pyridin-7-one] |
| 50 to 500 | > 1 | xx (Fold >50 and ≤200) | ≤ 50 | Cc1ncc(-c2cc3c(-c4cc(=O)n(C)cc4Oc4c(C)cccc4C)cn(C)c(=O)c3[nH]2)s1 [Example 31, 4-(5-(2,6-dimethylphenoxy)-1-methyl-2-oxo-1,2-dihydropyridin-4-yl)-6-methyl-2-(2-methylthiazol-5-yl)-1,6-dihydro-7H-pyrrolo[2,3-c] pyridin-7-one] |
